In article PMC10666548, “Identification of the bacterial metabolite aerugine as potential trigger of human dopaminergic neurodegeneration” (Environment international, 2023):
“Also recorded” adds a separate entry of the source. Read-outs that look alike come from different tables or passages of the source.

How the values were obtained:
other neurons = assay: Toxicity for other neurons (abstract summary); format: cell-based; conditions: Homo sapiens, Neuron, read-out: half-maximal toxicity for other neurons
[1] = test system: human dopaminergic neurons (LUHMES cells); assay: Cytotoxicity to mature (d6) LUHMES neurons, calcein-AM & H-33342 high content imaging; format: cell-based; conditions: for EC50: mature LUHMES d6, 24 h exposure, read-out: EC50 (half-maximal cytotoxic potency), cell viability
Experimental: (§1) For toxicity assessment of mature LUHMES neurons, precursor cells were pre-differentiated for 2 days in cell culture flasks pre-coated as described above and differentiation medium. Then, 45′000 cells per well were seeded in differentiation medium into standard 96-well plates pre-coated as described above. They were incubated at 37 °C and 5% CO2 for 4 days before compound treatment. At this time, cells were >99% post-mitotic and had established an extensive neurite network ([Scholz et al., 2011]) The cell viability was assessed via the Calcein/Hoechst readout, the LDH assay and the resazurin reduction assay.
(§2) Neurite area (NA) and viability (V) were assessed as described previously ([Stiegler et al., 2011]). In brief, cells were stained with 1 μM calcein-AM and 1 μg/ml H-33342 for 30 min at 37 °C and 5% CO2. Image acquisition was performed using an Array-Scan VTI HCS Reader (Cellomics, PA, USA) equipped with a Hamamatsu ORCA-ER camera. 10 fields per well were imaged with 2 channels at 20x magnification (2×2 pixel binning). Excitation/emission wavelengths of 365 ± 50/535 ± 45 nm were used for Hoechst detection in channel 1 and 474 ± 40/535 ± 45 nm were used for calcein detection in channel 2.
(§3) Nuclei were identified in channel 1 depending on intensity, area, size and shape. Their outlines were expanded by 3.2 μm to define a virtual cell soma area (VCSA), which was bigger than the average cell soma to prevent false positive NAs. All calcein-positive pixels were defined as viable cellular structures (VCSs). The NA was automatically calculated by excluding the VCSAs from the VCSs. Furthermore all nuclei co-localizing with VCSs were defined as alive.

[2] = as above; format: cell-based, human; conditions: human, mature LUHMES d6, 24 h exposure; read-out: EC50 (half-maximal cytotoxic potency), cell viability
Experimental: as §1, §2, §3

[3] = Cytotoxicity to immature (d2) LUHMES cells, calcein-AM & H-33342 imaging; format: cell-based; conditions: human, immature LUHMES d2, 24 h exposure, read-out: EC50 (half-maximal cytotoxic potency), cell viability
Experimental: The assays were performed as described previously ([Hoelting et al., 2016]; [Klima et al., 2021]; [Krug et al., 2013]). In brief, 30′000 cells per well were seeded on d2 (LUHMES) / d0 (peripheral neurons, Cortex.4U, CNS.4U) in their respective differentiation media into standard pre-coated 96-well plates. They were incubated for 1 h at 37 °C and 5% CO2 before treatment. 24 h after treatment the Calcein/Hoechst readout was performed.
as §2, with “Excitation/emission wavelengths of 365 ± 50/535 ± 45 nm were used for Hoechst detection in channel 1 and 474 ± 40/535 ± 45 nm were used for calcein detection in channel 2.” left out
Nuclei were identified in channel 1 depending on intensity, area, size and shape. […] The NA was automatically calculated by excluding the VCSAs from the VCSs. […]
Fig. 3. […] The cell viability was assessed 24 h later by calcein-AM & H-33342 staining and high content imaging. […] The overall cell viability was assessed by measuring resazurin reduction in technical triplicates. […] The cell viability was assessed 24 h later by calcein-AM & H-33342 staining and high content imaging. […]

[4] = test system: mitochondrial respiration in LUHMES cells; assay: Seahorse assessment of mitochondrial respiratory parameters; format: cell-based, human; conditions: d3 LUHMES
Experimental: The method was performed as described previously. ([Delp et al., 2018]) In brief, LUHMES cells were seeded on d2 into pre-coated Agilent Seahorse XFe24 well plates at a density of 100′000 cells/well in differentiation medium. On d3 the cells were analyzed in a Seahorse XF analyzer using the Mito stress test kit in accordance with the manufacturer’s instructions. In brief, 1 h prior to analysis the medium was changed to Seahorse XF base medium supplemented with 18 mM glucose, 2 mM glutamine and 1 mM pyruvate. The oxygen consumption rate (OCR) was measured to determine the basal respiration in untreated cells. After test compound injection the acute response was quantified. […] The addition of 0.5 μM rotenone and 0.5 μM antimycin A completely shut down mitochondrial respiration to quantify non-mitochondrial respiration. […] Image acquisition was performed using an Array-Scan VTI HCS Reader (Cellomics, PA, USA) equipped with a Hamamatsu ORCA-ER camera. […] Nuclei were identified and quantified depending on intensity, area, size and shape. According to pixel size and well size the total cell count was calculated and used for normalization of the OCR data. […]
A The effect of aerugine on respiratory function was analysed in d3 LUHMES cells. […] C Delp et al. (2019) determined the dependence of LUHMES cells on glycolysis and their mitochondria for ATP production in two different media conditions. […]

OCC1CSC(c2ccccc2O)=N1 (centres unmarked) [aerugine, 2-[4-(hydroxymethyl)-4,5-dihydro-1,3-thiazol-2-yl]phenol]
EC50 (other neurons): 10 to 20 µM
cytotoxicity to DAergic neurons (viability) ([1]; d6 LUHMES, 24 h (24 h and 48 h for purified compounds)): cytotoxic to DAergic neurons in a time- and concentration-dependent manner
effect on neurite area ([1]; d6 LUHMES, 24 h assay setup): affected neurites to the same extent and at similar concentrations as cell bodies
cytotoxic potency range ([1]; d6 LUHMES, purified compound): low μM range
EC50 ([1]; listed as Aerugine): 3 to 4 µM
EC50 [1]: 3.1 ± 0.7 µM
increase of aerugine sensitivity by neuronal maturity state ([1]; mature vs proliferating LUHMES): approximately three-fold
EC50 at 24 h [2]: 4.1 ± 0.8 µM
EC50 at 24 h [3]: 9.3 ± 1.1 µM
functional respiratory parameters (e.g. basal respiration, ATP production) [4]: no significant difference was observed
oxygen consumption rate (OCR) ([4]; various metabolic conditions): not different from control conditions; also recorded: No interaction
